Assay results: patent publication US8415310B2, “Isoxazoline derivatives as antiparasitic agents” (AH USA 42 LLC, priority 2010, dated 2013)

Columns and labels:
Ctenocephalides felis = assay: Flea (Ctenocephalides felis) Membrane Feed Assay-Adult; type: in vivo
Procedure: Flea (Ctenocephalides felis) Membrane Feed Assay-Adult
Comparative Data: Flea Feed Assay
Comparator compounds T1 and T2 were tested in the flea feed assay, as described above, and are compared to Examples 39 and 43, respectively. The compounds T1 (WO2008/122375) and T2 (US2009/0156643) represent the closet exemplified art. The data represents the 24 hour time period. Endpoint data were recorded as an lethal dose 90% (LD^90) in μg/mL. […] Comparator compounds T1 and T2 both had LD^90 values of >30 […].

Lepeophtheirus salmonis = assay: Copepod (Lepeophtheirus salmonis) BioAssay; type: in vivo; conditions: pre-adult/adult salmon lice exposed for 24 hours in sea water
Procedure: Copepod (Lepeophtheirus salmonis) BioAssay
Two Formula (1) compounds were dissolved in sea water. Negative control was sea water and positive control was emamectin benzoate. Ten pre-adult/adult salmon lice were exposed for 24 hours. Lice were monitored for motility and endpoint data was recorded as an Effective Concentration 100% (EC^100) based on immotility.

[1] = comparative data, flea feed assay, 24 hour time period

SMILES	lethal dose 90% (LD^90) (Ctenocephalides felis; [1]) [µg/mL]	Effective Concentration 100% (EC^100) based on immotility (Lepeophtheirus salmonis) [ppb]	further results
CC(=O)N1CC(F)(c2ccc(C3=NOC(c4cc(Cl)cc(Cl)c4)(C(F)(F)F)C3)cc2)C1 (centres unmarked) [Example 39, 1-(3-(4-(5-(3,5-Dichlorophenyl)-5-(trifluoromethyl)-4,5-dihydroisoxazol-3-yl)phenyl)-3-fluoroazetidin-1-yl)ethanone]	≤ 3		
O=C(CC(F)(F)F)N1CC(F)(c2ccc(C3=NOC(c4cc(Cl)c(F)c(Cl)c4)(C(F)(F)F)C3)cc2)C1 (racemic) [Example 19, 1-(3-(4-(5-(3,5-dichloro-4-fluorophenyl)-5-(trifluoromethyl)-4,5-dihydroisoxazol-3-yl)phenyl)-3-fluoroazetidin-1-yl)-3,3,3-trifluoropropan-1-one]		50	
O=C(NC1CC1)N1CC(F)(c2ccc(C3=NOC(c4cc(Cl)cc(Cl)c4)(C(F)(F)F)C3)cc2)C1 (centres unmarked) [Example 10, N-cyclopropyl-3-(4-(5-(3,5-dichlorophenyl)-5-(trifluoromethyl)-4,5-dihydroisoxazol-3-yl)phenyl)-3-fluoroazetidine-1-carboxamide]			lethal dose 90% (LD^90) (Ctenocephalides felis; adult fleas fed on treated citrated bovine blood approximately 2 hours, knockdown and/or death at approximately 2 and 24 hours): ≤ 0.03 µg/mL
O=C(CC(F)(F)F)N1CC(F)(c2ccc(C3=NOC(c4cc(Cl)cc(Cl)c4)(C(F)(F)F)C3)cc2)C1 (centres unmarked) [Example 43, 1-(3-(4-(5-(3,5-Dichlorophenyl)-5-(trifluoromethyl)-4,5-dihydroisoxazol-3-yl)phenyl)-3-fluoroazetidin-1-yl)-3,3,3-trifluoropropan-1-one]	≤ 1		
CC(C)C(=O)N1CC(F)(c2ccc(C3=NOC(c4cc(Cl)c(F)c(Cl)c4)(C(F)(F)F)C3)cc2)C1 (single isomer, unassigned) [Example 177, 5-(3,5-dichloro-4-fluorophenyl)-3-[4-(3-fluoro-1-isobutyrylazetidin-3-yl)phenyl]-5-(trifluoromethyl)-4,5-dihydroisoxazole]		50	
